In paper PMC5962729 (Frontiers in Pharmacology, 2018):
Like-named read-outs stand apart in the source and are kept apart here.

Experiments:
MDR1 = assay: Expression level of MDR1 in rat liver by UHPLC-MS/MS; assay type: in vivo
Experimental: Male Sprague Dawley rats (230 ± 20 g, 6–8 weeks of age) were purchased from B&K Laboratory Animal, Corp. Ltd. (Shanghai, China) and fed in the Laboratory Animal Center of Shanghai University of Traditional Chinese Medicine. All rats were allowed to acclimatize for 3 days before experimentation. The rats were randomly divided into six groups (n = 5 for each group). […] Moreover, groups 1 and 2 were intragastrically treated with physiological saline (0.9%) at a dose of 1 mL/100 g. […] At the end of the experiment, all rats were euthanized by CO2 inhalation. The serum samples were stored at -70°C until analysis, and liver samples were isolated and stored at -70°C for further analysis, whereas the central part of the right large lobe of the liver was used for histological examination.
Biotransformation of xenobiotics and endogenous compounds is a crucial step in the absorption and elimination of potentially harmful substances from the human body, a process that could be affected by the levels of pharmacokinetic enzymes and transporter proteins. […]
Total membrane protein was isolated (in triplicate) from liver tissue according to the Native Membrane Protein Extraction Kit protocol. Subsequently, protein concentrations were determined by applying the BCA Protein Assay Kit. […]

[1] = Pharmacokinetic study of YCHD components and phase II metabolites in normal rats (UHPLC-MS/MS, sulfatase enzymolysis); assay type: in vivo, rat; conditions: for Tmax / Cmax / CL/F / MRT inf / Vd/F / half-life: rat; for CL/F: read-out: CLz/F; for MRT inf: read-out: MRT (0-∞) (converted); for Vd/F: read-out: Vz/F; for half-life: read-out: t1/2z
Experimental: To explore the pharmacokinetic properties of YCHD following intragastric administration in rats, a rapid and sensitive method involving the use of UHPLC-MS/MS (Agilent 6460 series, Agilent Technologies, Santa Clara, CA, United States) was developed and validated for the simultaneous quantification of 10 active components of rat plasma. The quantification was conducted in ESI negative ionization mode, and the mass spectrometry conditions were as follows: capillary voltage, 3500 V; gas flow, 12 L/min; nebulizer, 40 psi; gas temperature, 350°C; and delta EMV (-), 400. A 5 μL extraction sample was injected into the column (Agilent SB-C18 column, 2.1 mm × 50 mm, 1.8 μm) and eluted at 0.4 mL/min with a gradient elution of water (with 0.4% v/v formic acid) (A) and acetonitrile (B) (0–3 min, 5–60% B; 3–5 min, 60–90% B; 5–5.1 min, 90–5% B; and re-equilibration for 3 min).
To each 50 μL plasma sample, 10 μL of internal standard solution (paeoniflorin, 1000 ng/mL) and 300 μL of a mixed solution of methanol and acetonitrile (v/v, 1:1; containing 1% formic acid) were added. Subsequently, the solution was vortex mixed for 5 min. After centrifugation at 15,000 rpm for 5 min, the supernatant was transferred completely into a tube, before being evaporated under N2 at 40°C. The residue was then dissolved in 50 μL of 50% methanol–water (v/v, 1:1) through vortexing for 5 min, after centrifugation at 15,000 rpm for 10 min. Finally, 5 μL of the supernatant sample was injected into the UHPLC-MS/MS system for analysis.
The rats were randomly divided into two groups (n = 5 for each group). […] After 24 h, the two groups of rats received a single oral dose of YCHD (12 g/kg). Blood was collected in heparinized tubes at 5, 15, 30, 45, 60, 120, 240, 360, 480, 720, and 1440 min after administration. The blood samples were centrifuged at 4000 rpm for 10 min, and the supernatant plasma was harvested. Plasma samples (50 μL) were immediately processed as outlined in Section “Chromatographic and Mass Spectrometry Conditions.”
Additional plasma samples (50 μL) were enzymatically hydrolyzed with 50 μL of enzyme solution (65.86 mg of sulfatase, dissolved in 2 mL of sodium acetate buffer, pH 5.0) for phase II metabolite quantification, in accordance with our previous study ([Ding et al., 2012]). After being vortex mixed for 5 min, the mixture was incubated at 37°C for 30 min and then returned to room temperature. Subsequently, the samples were processed as outlined in Section “Chromatographic and Mass Spectrometry Conditions” for UHPLC-MS/MS analysis. During routine analysis, each analytical run included six blank plasma samples, a set of calibration samples, a set of QC samples, and unknowns.
All data are presented as mean ± SD. A one-way analysis of variance was used to compare data between two groups using SPSS (Version 21.0). The differences were considered to be statistically significant when p < 0.05 and highly significant when p < 0.01 or p < 0.001. Pharmacokinetic data analysis was performed using DAS 2.1.1 software (Mathematical Pharmacology Professional Committee of China, Shanghai, China).
After sulfatase-aided enzymolysis, all the phase II metabolites could transform into their prototypes, including rhein, emodin, genipin, and capillarisin. The specific contents of the phase II metabolites of these components were detected indirectly by evaluating the content difference of their prototypes in samples after enzymolysis and before enzymolysis
CG = Ca −[MG × (CGG/MGG + CGe/MGe)]
Ca, CGG, and CGe represent the concentration of genipin, genipin-1-β-D-gentiobioside, and geniposide after enzymolysis of sulfatase, respectively. MG, MGG-, and MGe represent the mass of genipin, genipin-1-β-D-gentiobioside, and geniposide, respectively. The pharmacokinetic curves of phase II metabolites are illustrated in Figure 4B.

[2] = Control group (normal rats), single oral YCHD 12 g/kg, plasma
[3] = in vivo, Control group (normal rats), single oral YCHD 12 g/kg, plasma
[4] = Sprague Dawley, plasma, po, 12 g/kg, in normal and cholestatic rats after oral administration of YCHD
[5] = plasma, po, 12 g/kg, Control group (normal rats), single oral YCHD 12 g/kg, plasma
[6] = Sprague Dawley, Control group (normal rats), single oral YCHD 12 g/kg, plasma
[7] = Sprague Dawley, in vivo, Control group (normal rats), single oral YCHD 12 g/kg, plasma

Tmax [1, 4] [h] | Tmax [1, 5] [h] | Cmax [1, 2] [ng/mL] | CL/F [1, 2] [mL/min/kg] | MRT inf [1, 2] [h] | Compound | AUC(0-∞) [1, 2] [µg·min/L] | Ka [1, 2] [min⁻¹] | other results
 |  |  |  |  | C[C@H](CCC(=O)O)[C@H]1CC[C@H]2[C@@H]3[C@@H](O)C[C@@H]4C[C@H](O)CC[C@]4(C)[C@H]3CC[C@]12C [UDCA, Ursodeoxycholic acid] |  |  | Mdr1 expression level in rat liver (MDR1; UDCA group, ANIT-treated rats, mean ± S.D.): 0.67±0.32 fmol/μg protein; MDR1 level, fold higher (MDR1; UDCA-treated cholestatic rats, liver, as compared with the control group, p < 0.05): 2.4 fold
 |  |  |  |  | COC(=O)C1=CO[C@@H](O[C@@H]2O[C@H](CO)[C@@H](O)[C@H](O)[C@H]2O)[C@@H]2C(CO)=CC[C@H]12 [Geniposide] | 384279.8 ± 184237.0 | 702.9 ± 413.6 | Tmax ([1]; Sprague Dawley, in vivo, 12 g/kg, in normal and cholestatic rats after oral administration of YCHD): ≤ 0.45 h; Cmax [1, 3]: 524 ± 59.4 ng/mL; Tmax [1, 3]: 0.3 h; CL/F [1, 3]: 122 ± 22 mL/min/kg; MRT inf [1, 3]: 3.36 h; Vd/F [1, 3]: 21.1 ± 12 L/kg; half-life [1, 3]: 1.9 ± 0.765 h
≤ 0.45 | 0.25 | 3040 ± 397 | 41 ± 6 | 2.01 | O=C(O)c1cc(O)c2c(c1)C(=O)c1cccc(O)c1C2=O [Rhein] | 874792.3 ± 503744.0 | 4443.6 ± 454.1 | Vd/F [1, 2]: 3.79 ± 0.53 L/kg; half-life [1, 2]: 1.06 ± 0.00833 h
 |  |  |  |  | COC(=O)C1=COC(OC2OC(CO)C(O)C(O)C2O)C2C(CO)=CC(O)C12 (stereo not shown) [Scandoside methyl ester] | 233687.2 ± 127559.1 | 477.5 ± 133.9 | Cmax [1, 7]: 127 ± 8.9 ng/mL; Tmax [1, 7]: 0.35 h; CL/F [1, 7]: 184 ± 33 mL/min/kg; MRT inf [1, 7]: 6.08 h; Vd/F [1, 3]: 62 ± 30.8 L/kg; half-life [1, 3]: 3.82 ± 1.76 h
≤ 0.45 | 0.25 | 1580 ± 133 |  | 4.82 | CC(=O)c1ccc(O)cc1 [4-hydroxyacetophenone, 4-Hydroxyacetophenone] | 192358.2 ± 102858.3 | 406.1 ± 333.9 | half-life [1, 2]: 13.8 ± 13.6 h
≤ 0.45 | 0.35 | 106 ± 3.9 | 1040 ± 56 | 2.13 | COC(=O)C1=CO[C@@H](O[C@@H]2O[C@H](CO[C@@H]3O[C@H](CO)[C@@H](O)[C@H](O)[C@H]3O)[C@@H](O)[C@H](O)[C@H]2O)[C@@H]2C(CO)=CC[C@H]12 [genipin-1-β-D-gentiobiodide, Genipin-1-β-D-gentiobiodide] | 38557.0 ± 20175.1 | 95.5 ± 16.2 | Vd/F [1, 6]: 170 ± 52.3 L/kg; half-life [1, 6]: 1.93 ± 0.538 h

Compound | Tmax [1, 4] [h] | Tmax [1, 5] [h] | Cmax [1, 2] [ng/mL] | CL/F [1, 2] [mL/min/kg] | MRT inf [1, 2] [h] | AUC(0-∞) [1, 2] [µg·min/L] | Ka [1, 2] [min⁻¹] | other results
O=C(O)C1=CO[C@@H](O[C@@H]2O[C@H](CO)[C@@H](O)[C@H](O)[C@H]2O)[C@@H]2C(CO)=CC[C@H]12 [Geniposidic acid] |  |  | 449 ± 34.2 | 30 ± 4 | 5.93 | 1374849.8 ± 734718.1 | 11255.3 ± 11024.4 | Vd/F [1, 6]: 8.6 ± 3.2 L/kg; half-life [1, 6]: 3.23 ± 0.755 h; Tmax [1, 3]: 4.4 h
